The values below come from article PMC6136712, “Ex vivo drug sensitivity testing as a means for drug repurposing in esophageal adenocarcinoma” (PLoS ONE, 2018).

Counter-ions that a name gives are not always drawn.

The test system of the assay is normal esophageal epithelium cell line EACN42. The assay is described as follows: FDA library drug sensitivity testing (CellTiter-Glo, 72 h), normal control cells. The assay is classed as cell-based, human. On the set-up: key to DSS: modified drug sensitivity score (DSSmod) from dose-response curve fit. As for the experimental part:
The normal esophageal epithelium cell line EACN42 was established in the Capobianco laboratory. The cell lines was derived from human normal epithelium and immortalized using HPV E6-E7.
Drug sensitivity testing (DST) was performed as described previously. […] Individual drugs were dissolved in 100% DMSO and tested in duplicates starting at a maximal test concentration of 10μM then over a 20,000-fold concentration range to generate dose response curves. Wells with assay buffer containing DMSO served as negative controls. 1000 exponentially growing cells were seeded per well in 384-well micro-titer plates and incubated in the presence of compounds in a humidified environment at 37°C and 5% CO2. After 72 hours of treatment, cell viability was assessed by measuring ATP levels via bioluminescence (CellTiter-Glo, Promega) according to manufactures recommendations. Interpretation of curve parameters was performed according to the modified drug sensitivity scoring (DSSmod) function developed by Swords et al. […] Given in this way, the sDSSmod incorporated information on each drug’s potency, efficacy, effect range and therapeutic index, making it possible to prioritize compounds over multiple parameters using a single numerical metric. […] All calculations and scoring routines are implemented in MatLab and additional curve fitting and statistical analyses are performed in GraphPad prism.

Setting [1] is: drug sensitivity score, EACN42 normal esophageal cells, 72 h.
[2] abbreviates: Homo sapiens, 72 h, EACN42 normal esophageal cells, cell viability (ATP), max test concentration 10μM.
The mark [3] stands for this setting: EACN42 normal esophageal cells, 72 h.
Setting [4] is: EACN42 normal esophageal cells, 72 h, cell viability (ATP), max test concentration 10μM.

Under setting [1], `Cc1ccc(Nc2nccc(N(C)c3ccc4c(C)n(C)nc4c3)n2)cc1S(N)(=O)=O` [Pazopanib] gave a DSS of 0.

Turning to `Cc1ccc(NC(=O)c2ccc(CN3CCN(C)CC3)cc2)cc1Nc1nccc(-c2cccnc2)n1` [Imatinib], under setting [1], the DSS came out at 0.

As to `CC(C)(C#N)c1cc(Cn2cncn2)cc(C(C)(C)C#N)c1` [Anastrozole], the EC50 under setting [2] was 1590 nM. Under setting [1], this compound gave a DSS of 0. As for `O=c1[nH]c(=O)n(C2CCCO2)cc1F` (centres unmarked) [Ftorafur], the DSS under setting [1] was determined as 0. Consider `Cl.Cl.Fc1ccc(C(c2ccc(F)cc2)N2CCN(C/C=C/c3ccccc3)CC2)cc1` [Flunarizine 2HCl], for which, under setting [1], the DSS is listed as 0.03.

`CC[C@]1(O)C[C@@H]2CN(CCc3c([nH]c4ccccc34)[C@@](C(=O)OC)(c3cc4c(cc3OC)N(C)[C@H]3[C@@](O)(C(=O)OC)[C@H](OC(C)=O)[C@]5(CC)C=CCN6CC[C@]43[C@@H]65)C2)C1` [Vinblastine] returned a concentration giving a half-maximal response (EC50) under setting [2] greater than 10000 nM. The compound further registered a DSS under setting [1] of 1.63. `N=C(N)/N=C(\N)N1CCOCC1` [Moroxydine] displayed a DSS under setting [1] of 0. `O=C(O)C1=CO[C@@H](O[C@@H]2O[C@H](CO)[C@@H](O)[C@H](O)[C@H]2O)[C@@H]2C(CO)=CC[C@H]12` [Geniposidic acid] returned a DSS under setting [1] of 0.

Under setting [1], `CC1(C)O[C@@H]2C[C@H]3[C@@H]4CCC5=CC(=O)C=C[C@]5(C)[C@@]4(F)[C@@H](O)C[C@]3(C)[C@]2(C(=O)CO)O1` [Triamcinolone Acetonide] gave a DSS of 0.

With `CO[C@H]1O[C@@H]2O[C@@]3(C)CC[C@H]4[C@H](C)CC[C@@H]([C@H]1C)[C@@]24OO3` [Artemether], under setting [1], the DSS is listed as 0. `CCN1CCN(c2cc(-c3ccc(F)cc3)c3c(n2)CCCCCC3)CC1` [Blonanserin] registered an EC50 under setting [2] of 40 nM. The same compound displayed a DSS under setting [1] of 0. Compound `O=C1[C@H](CC[C@H](O)c2ccc(F)cc2)[C@@H](c2ccc(O)cc2)N1c1ccc(F)cc1` [Ezetimibe] showed a DSS under setting [1] of 0.

Take `CC(=O)O[C@H]1CC[C@@]2(C)C(=CC[C@@H]3[C@@H]2CC[C@]2(C)C(c4cccnc4)=CC[C@@H]32)C1` [Abiraterone Acetate]: under setting [1], the DSS was 0. The same measure, in the same setting: then `CNC[C@H](O)c1ccc(O)c(O)c1` [Epinephrine bitartrate], with 0. Under setting [2], `CN(C)C/C=C/C(=O)Nc1cc2c(Nc3ccc(F)c(Cl)c3)ncnc2cc1O[C@H]1CCOC1` [Afatinib] yielded a concentration for a half-maximal effect (EC50) of 4610 nM. This compound had a DSS under setting [1] of 0.12. In turn, `Cl.Cn1c(CCCC(=O)O)nc2cc(N(CCCl)CCCl)ccc21` [Bendamustine HCL] came in with a DSS under setting [1] of 0.

Consider `N#CC1(c2ccc(NC(=O)c3cccnc3NCc3ccncc3)cc2)CCCC1` [Apatinib], for which, under setting [2], the midpoint of the response, the EC50, lay at 50 nM. This compound also gave a DSS under setting [1] of 0. For Maraviroc, the “treatment response in words” value under setting [3] is “low or no activity”. Also, the DSS under setting [1] was 0. With `O=C(c1ccc(OCCN2CCCCC2)cc1)c1c(-c2ccc(O)cc2)sc2cc(O)ccc12` [Evista], under setting [1], the DSS is listed as 0. In turn, `C=CC[C@@H]1/C=C(\C)C[C@H](C)C[C@H](OC)[C@H]2O[C@@](O)(C(=O)C(=O)N3CCCC[C@H]3C(=O)O[C@H](/C(C)=C/[C@@H]3CC[C@@H](O)[C@H](OC)C3)[C@H](C)[C@@H](O)CC1=O)[C@H](C)C[C@@H]2OC` [Tacrolimus] had a DSS under setting [1] of 0. On the same count and under the same terms, then `CCC1(c2ccc(N)cc2)CCC(=O)NC1=O` (centres unmarked) [Aminoglutethimide], with 0. Regarding `O=NN(CCCl)C(=O)NC1CCCCC1` [Lomustine], under setting [1], the DSS came to 0. As to `Nc1nc2c(c(=O)[nH]1)N(C=O)C(CNc1ccc(C(=O)N[C@@H](CCC(=O)O)C(=O)O)cc1)CN2` (some centres unmarked) [Leucovorin Calcium], the EC50 under setting [2] turned out to be 90 nM. Further, the DSS under setting [1] was found to be 0.04. As for `CC[C@H]1OC(=O)[C@H](C)[C@@H](O[C@H]2C[C@@](C)(OC)[C@@H](O)[C@H](C)O2)[C@H](C)[C@@H](O[C@@H]2O[C@H](C)C[C@H](N(C)C)[C@H]2O)[C@](C)(O)C[C@@H](C)CN(C)[C@H](C)[C@@H](O)[C@]1(C)O` [Azithromycin], the DSS under setting [1] was 0. Consider `Cl.Nc1ncnc2nc[nH]c12` [Adenine hydrochloride], for which a half-maximal response under setting [4] (EC50) required 10 nM. This compound also displayed a DSS under setting [1] of 0.

Compound `CC(O)(CS(=O)(=O)c1ccc(F)cc1)C(=O)Nc1ccc(C#N)c(C(F)(F)F)c1` (centres unmarked) [Bicalutamide] showed a DSS under setting [1] of 0. Turning to `O=C1[O][Pt]2([NH][C@@H]3CCCC[C@H]3[NH]2)[O]C1=O` [Oxaliplatin], the “treatment response in words” value under setting [3] is recorded as “minimal treatment effects”. This compound also returned a DSS under setting [1] of 0.06. In turn, `N#CC[C@H](C1CCCC1)n1cc(-c2ncnc3[nH]ccc23)cn1` [Ruxolitinib] displayed a DSS under setting [1] of 0. The same measure, in the same setting: under `Cc1ccc(NC(=O)c2ccc(CN3CCN(C)CC3)cc2)cc1Nc1nc(-c2cccnc2)cs1` [Masitinib] stands 0. Compound `CCCCNC(=O)NS(=O)(=O)c1ccc(C)cc1` [Tolbutamide] gave an EC50 under setting [2] of 60 nM. Under setting [1], this compound returned a DSS of 0. On to `Nc1ncn([C@H]2C[C@H](O)[C@@H](CO)O2)c(=O)n1` [Decitabine], for which, for the setting “Homo sapiens; EACN42 normal esophageal cells, 72 h, cell viability (ATP), max test concentration 10μM”, the response was half-maximal at 170 nM (EC50). The same compound had a DSS under setting [1] of 0. Take `CN(CCOc1ccc(CC2SC(=O)NC2=O)cc1)c1ccccn1` (centres unmarked) [Rosiglitazone]: the DSS under setting [1] was found to be 0. Under setting [2], `CC1=C(CC(=O)O)c2cc(F)ccc2/C1=C\c1ccc([S+](C)[O-])cc1` (centres unmarked) [Sulindac] returned an EC50 of 50 nM. The same compound displayed a DSS under setting [1] of 0. For `Nc1cc(C(Cl)=C(Cl)Cl)c(S(N)(=O)=O)cc1S(N)(=O)=O` [Clorsulon], the DSS under setting [1] amounted to 0.

The compound `CC/C(=C(\c1ccccc1)c1ccc(OCCN(C)C)cc1)c1ccccc1` [Tamoxifen Citrate] returned a DSS under setting [1] of 0.

`C=C(c1ccc(C(=O)O)cc1)c1cc2c(cc1C)C(C)(C)CCC2(C)C` [Bexarotene] had an EC50 under setting [2] of 4290 nM. Also, the DSS under setting [1] stood at 0.12. In the same order, the values of `O=C1CN2Cc3c(ccc(Cl)c3Cl)N=C2N1` [Anagrelide HCl] are 40 nM and 0. `CCCCCOC(=O)Nc1nc(=O)n([C@@H]2O[C@H](C)[C@@H](O)[C@H]2O)cc1F` [Capecitabine] came in with an EC50 under setting [2] of 1000 nM. Under setting [1], this compound had a DSS of 0. Compound `O=P1(NCCCl)OCCCN1CCCl` (centres unmarked) [Ifosfamide] yielded a DSS under setting [1] of 0. Compound `C=C1C[C@@H]2[C@H](CC[C@]3(C)C(=O)CC[C@@H]23)[C@@]2(C)C=CC(=O)C=C12` [Exemestane] showed a DSS (72 h) of 0. With `C=CCN1CC[C@]23c4c5ccc(O)c4O[C@H]2C(=O)CC[C@@]3(O)[C@H]1C5` [Naloxone HCl], the DSS under setting [1] is reported as 0. Under setting [2], `COc1c2ccoc2cc2oc(=O)ccc12` [Bergapten] had an EC50 of 50 nM. For the same compound, under setting [1], the DSS came out at 0. The compound `CN(C)/N=N/c1[nH]cnc1C(N)=O` [Dacarbazine] came in with a DSS under setting [1] of 0.

Regarding `Nc1ncnc2nc[nH]c12.Nc1ncnc2nc[nH]c12.O=S(=O)(O)O` [Adenine sulfate], a half-maximal effect under setting [4] (EC50) was put at 250 nM. The compound further displayed a DSS under setting [1] of 0. On to `CS(=O)(=O)OCCCCOS(C)(=O)=O` [Busulfan], for which the DSS under setting [1] was determined as 0. `COc1cc(Nc2c(C#N)cnc3cc(OCCCN4CCN(C)CC4)c(OC)cc23)c(Cl)cc1Cl` [Bosutinib] had a DSS under setting [1] of 0. On the same count and under the same terms, under `Nc1ncnc2[nH]cnc12` [Adenine] stands 0; under `CC(c1cc2ccccc2s1)N(O)C(N)=O` (centres unmarked) [Zileuton], 0. On the same count and under the same terms, under `C[C@]12CC[C@@H]3c4ccc(O)cc4CC[C@H]3[C@@H]1CC[C@@H]2O` [Estradiol] stands 0; under `CC(C)C[C@H](NC(=O)[C@@H](O)[C@H](N)Cc1ccccc1)C(=O)O` [Ubenimex], 0; under `CCc1ccc(CCOc2ccc(CC3SC(=O)NC3=O)cc2)nc1` (centres unmarked) [Pioglitazone], 0. The same measure, in the same setting: under `Nc1nnc(-c2cccc(Cl)c2Cl)c(N)n1` [Lamotrigine] stands 0. Compound `CNC(=O)c1cc(Oc2ccc(NC(=O)Nc3ccc(Cl)c(C(F)(F)F)c3)cc2)ccn1` [Sorafenib] displayed an EC50 under setting [2] of 9620 nM. Moreover, under setting [1], the DSS is listed as 1.79. On to `CCCC(=O)[O-].[Na+]` [Sodium butyrate], for which the DSS under setting [1] is 0.

With `Nc1cccc2c1CN(C1CCC(=O)NC1=O)C2=O` (centres unmarked) [Lenalidomide], the DSS under setting [1] stood at 0. On the same count and under the same terms, then `NC(=O)NO` [Hydroxyurea], with 0; and `C#Cc1cccc(Nc2ncnc3cc(OCCOC)c(OCCOC)cc23)c1` [Erlotinib HCl], with 0. In the case of `CC(C)Cn1cnc2c(N)nc3ccccc3c21` [Imiquimod], the EC50 under setting [2] is 2000 nM. The same compound had a DSS under setting [1] of 0. Regarding `COC(=O)N[C@H](C(=O)N[C@@H](Cc1ccccc1)[C@@H](O)CN(Cc1ccc(-c2ccccn2)cc1)NC(=O)[C@@H](NC(=O)OC)C(C)(C)C)C(C)(C)C.O=S(=O)(O)O` [Atazanavir sulfate], under setting [1], the DSS is listed as 0.

In the case of `CCC(C)n1ncn(-c2ccc(N3CCN(c4ccc(OCC5COC(Cn6cncn6)(c6ccc(Cl)cc6Cl)O5)cc4)CC3)cc2)c1=O` (centres unmarked) [Itraconazole], the DSS under setting [1] stood at 0. On the same count and under the same terms, under `O=C(O)c1nn(Cc2ccc(Cl)cc2Cl)c2ccccc12` [Lonidamine] stands 0.
